Data reported in patent US8269022B2, “Polymorphs of enantiopure erdosteine” (Edmond Pharma S.R.L, priority 2007, dated 2012).

Assays:
[1] = Dissolution rate test (Intrinsic Dissolution Rate) of 150 mg tablets in 0.1M hydrochloric acid; assay type: physicochemical; settings: FIG. 10
Protocol: A dissolution rate test was performed in order to define the Intrinsic Dissolution Rate of Erdosteine Form I and Racemic Erdosteine. Six thin 150 mg tablets of S-erdosteine Form I and six 150 mg tablets of racemic Erdosteine were prepared by compression with a 10 ton press and their dissolution profile in 0.1M hydrochloric acid was evaluated. The two profiles are reported in FIG. 10, superimposed on the same graph. As can be clearly seen, the dissolution profile of Form I is very different from that of racemic, non-polymorphic Erdosteine. In fact, after 15 minutes more than 80% Form I is dissolved, while more that 25 minutes are necessary to dissolve 40% racemic Erdosteine. The higher solubility of Form I allows to obtain an improved pharmaceutical form in terms of dosage and bioavailability.

[2] = Flowability test (flow through the funnel); assay type: physicochemical; settings: for Flowing time (mean value): flowability comparison, powder
Text: These advantages will be clearer by considering the following comparison between Form I of S-Erdosteine and the amorphous racemic form. […] Conversely, Form I has a mean flowing time of about 35 seconds, which allows to handle and transfer the powder more easily, and to avoid the use or reduce the amount of glidants in the finished pharmaceutical formulation.

## O=C(O)CSCC(=O)NC1CCSC1=O (racemic) [Racemic Erdosteine]
[1]
  time necessary to dissolve 40%: > 25 min
[2]
  Flowing time (mean value): ∞
[2]; result in words
  flowability (flow through the funnel): does not flow through the funnel

## O=C(O)CSCC(=O)NC1CCSC1=O (stereo not drawn) [Erdosteine Form I]
[1]; after 15 minutes
  amount dissolved: more than 80%
[2]
  Flowing time (mean value): 35.6″
[2]; powder through the funnel
  mean flowing time: about 35 seconds
